# Source: patent US9382204B2, “Inhibitors targeting the DNA-binding domain of human STAT3 for treatment of metastatic cancers” (Indiana University Research and Technology Corporation, priority 2013, dated 2016)
# Key:
# STAT3 [1] = experiment: IL-6 stimulated STAT3 activation in serum-starved A549 cells; conditions: 25 ng/ml IL-6
# MDA-MB-231 cells [2] = experiment: Wound-healing migration assay, MDA-MB-231; format: cell-based, human; conditions: 24 hours
# Method: (§1) For wound-healing assay, 1×10^5 cells per well were plated in 6-well plates followed by introduction of a wound and monitoring the healing process of the wound over a 24-hour period. The healing of the wound was determined by measuring the remaining gap between two migrating edges at different times. […] At different times, invading cells were stained with crystal violate and counted.
# A549 cells [3] = experiment: Matrigel invasion assay, A549; format: cell-based, human
# Method: as §1
# [4] = Cytotoxicity sulphorhodamine (SRB) assay, non-cancerous cells; conditions: human, IMR90 lung fibroblast and MCF10A1 mammary epithelial cells
# Method: FIG. 7. […] (A) Level of STAT3 expression and activation. […] Actin was used as a loading control. (B-C) Cytotoxicity assay. […] IC50 of inS3-54 for each cell line was derived using PrismPad program. (D) Apoptosis assay.
# Cytotoxicity of inS3-54 was determined using sulphorhodamine colorimetric assay as described previously (41). Photometric enzyme immunoassay using Cell Death Detection ELISA Plus kit (Roche Diagnostics, Indianapolis, Ind.) was performed for quantitative in-vitro determination of cytoplasmic histone-associated DNA fragments and apoptosis as we previously described.
# Survival, apoptosis, migration, and invasion assays were performed as previously described. Briefly, effect of STAT3 inhibitors on cell survival were analyzed using sulforhodamine B (SRB) assay. Apoptosis induced by STAT3 inhibitors cells were quantified using Cell Death Detection ELISA^PLUS Kit (Roche, Mannheim, Germany) by enzyme-linked immunosorbent assay (ELISA) according to manufacturer's instructions. Wound filling assay was performed by culturing 1×10^5 cells/well in 6-well plates, followed by generating a wound using a pipet tip and continuous culture with photographic recording at different times.
# A549 cells [5] = experiment: Wound-healing migration assay, A549; format: cell-based, human; conditions: 24 hours
# Method: as §1
# [6] = tested on: STAT3 downstream target genes; experiment: Western blot and RT-PCR of STAT3 and its downstream target genes; format: cell-based, human
# Method: FIG. 10. […] Actin was used as a loading control.
# FIG. 11. Effect of inS3-54 on mRNA level of STAT3 downstream target genes. MDA-MB-231 (A) and A549 (B) cells were treated with DMSO control or 20 μM inS3-54 followed by extracting total RNA and real-time PCR analysis.
# Quantitative RT-PCR analysis was performed using primers shown in supplemental Table 2 as previously described.
# A549 cells [7] = experiment: Proliferation and apoptosis of 100% confluent A549 cells; format: cell-based, human
# Method: (§2) FIG. 9. Effect of inS3-54 on cell growth and apoptosis of confluent cells. […] (**p<0.01; *p<0.05).
# (§3) FIG. 21. Effects of inS3-54A18 on cell growth and apoptosis of confluent cells.
# (§4) Although we used 100% confluent cells and short time incubation in the above assays, inS3-54 inhibition of proliferation may still contribute to the above observed outcome. To eliminate this possibility, we analyzed cell proliferation and apoptosis under the same condition as wound-healing and Matrigel invasion assays with confluent cultures. […] Thus, we conclude that inS3-54 inhibition of migration and invasion is unlikely due to its effect on apoptosis and cell proliferation.
# [8] = tested on: A549 and MDA-MB-231 cells; experiment: Luminescence-based glutathione alkylation assay (GSH-Glo); format: cell-based, human; conditions: 20 μM inS3-54 48 hours, 15 mM iodoacetamide 30 minutes
# Text: FIG. 5. Effect of inS3-54 glutathione level. […] (***p<0.001).
# To further eliminate the possibility that inS3-54 has alkylating activity, we performed luminescence-based glutathione alkylation assay.
# [9] = tested on: A549, H1299, MDA-MB-231 and MDA-MB-468 cells; experiment: Cytotoxicity sulphorhodamine (SRB) assay, cancer cells; format: cell-based, human
# STAT3 [10] = experiment: STAT3-dependent luciferase reporter assay in transiently transfected H1299 cells; format: cell-based, human; conditions: newly synthesized compound
# Text: FIG. 1. Schematic diagram and identification of inS3-54 by virtual screening. (A) DNA-STAT3 complex structure (PDB code: 1BG1). […] (B) Luciferase activity assay of MDA-MB-231 cells stably transfected with STAT3-dependent luciferase reporter. (C) Structure of inS3-54. (D) Luciferase activity assay of H1299 cells transiently transfected with STAT3-dependent luciferase reporter. (E) Simulated average complex structure of inS3-54 in the DBD of STAT3. (F & G) Molecular surface of STAT3 (F) and STAT1 (G) complexed with inS3-54 from MD simulation with orientation shown in gold for STAT3 and pink for STAT1. Molecular surface is colored with gray for carbon, blue for nitrogen, red for oxygen and yellow for sulfur. (**p<0.01).
# To confirm the activity of the compound using re-supplied material, to eliminate the potential issues associated with the use of a single stable clone harboring the luciferase reporter gene, and to test if inS3-54 is cell line specific, we tested newly synthesized inS3-54 using H1299 cells transiently transfected with the STAT3-driven luciferase reporter plasmid. […] Thus, the activity of inS3-54 is not derived from potential contamination in the original supply and it is not dependent on cell line specific or transfection method used.
# [11] = Pilot pharmacokinetic study
# MDA-MB-231 cells [12] = experiment: Proliferation and apoptosis of 100% confluent MDA-MB-231 cells; format: cell-based, human
# Method: as §2, §3, §4
# [13] = tested on: A549 and MDA-MB-231 cells; experiment: Apoptosis ELISA of exponentially growing cells; format: cell-based, human; conditions: 72 hours
# MDA-MB-231 cells [14] = experiment: Matrigel invasion assay, MDA-MB-231; format: cell-based, human
# Method: as §1
# STAT3 [15] = experiment: ChIP assay of STAT3 bound to cyclin D1 promoter; format: cell-based, human
# Method: ChIP was performed as previously described. Briefly, H1299 cells were treated with 1% formaldehyde for 10 min and lysates of the cells were sonicated to shear DNA to lengths between 200 and 1000 bases, which were then subjected to ChIP using Chromatin Immunoprecipitation Assay Kit (EMD Millipore, Billerica, Mass.) and normal IgG or STAT3 specific antibody (Santa Cruz) according to manufacturer's instructions. The primers for PCR of cyclin D1 promoter are 5′-[…]-3′ SEQ ID NO: 23 (forward) and 5′-[…]-3′ SED ID NO: 24 (reverse).
# [16] = A549 and MDA-MB-231 cells, Western blot
smiles,measurement,setting,value
"O=C(O)c1ccc(N2C(=O)/C(=C/c3ccc([N+](=O)[O-])cc3)C=C2c2ccccc2)cc1 [inS3-54, 4-[(3E)-3-[(4-nitrophenyl)-methylidene]-2-oxo-5-phenylpyrrol-1-yl]benzoic acid]",IL-6-stimulated phosphorylation / activation of STAT3,STAT3 [1],had no effect
same,IL-6 stimulated expression of survivin,STAT3 [1],inhibited
same,wounds healed,MDA-MB-231 cells [2]; 10 μM,77%
same,wounds healed,MDA-MB-231 cells [2]; 20 μM,29%
same,"invasion reduced to, compared with control","A549 cells [3]; 10 μM, 6 hours",67%
same,"invasion reduced to, compared with control","A549 cells [3]; 20 μM, 6 hours",49%
same,activity at 10 µM,"A549 cells [3]; Homo sapiens, A549, 10 μM, 24 hours, read-out: invasion, % of controls",~71%
same,activity at 20 µM,"A549 cells [3]; Homo sapiens, A549, 20 μM, 24 hours, read-out: invasion, % of controls",33%
same,IC50 at 72 h,[4],10 to 12 µM
same,wounds healed,A549 cells [5]; 10 μM,54%
same,wounds healed,A549 cells [5]; 20 μM,27%
same,mRNA level of STAT3 downstream targets,"[6]; 20 μM, MDA-MB-231 and A549 cells, real-time PCR",inhibited
same,"expression of STAT3 downstream target genes at protein level (cyclin D1, survivin, VEGF, MMP-2, MMP-9, twist)",[6]; [16],decreased
same,level of total STAT3 or basal level of Tyr705-phosphorylated STAT3,[6]; [16],had no effect
same,proliferation and apoptosis of confluent A549 cells,"A549 cells [7]; 20 μM, 24 hours",no significant effect
same,glutathione level,[8],did not significantly reduce
same,IC50,"[9]; Homo sapiens, 72 h, read-out: IC50 in cytotoxicity assay, cancer cells",3.2 to 5.4 µM
same,STAT3-dependent luciferase reporter expression,STAT3 [10],significantly inhibits
same,plasma concentration,[11],very low
same,proliferation and apoptosis of confluent MDA-MB-231 cells,MDA-MB-231 cells [12]; 10 μM,did not significantly decrease proliferation or increase apoptosis
same,apoptosis of confluent cells,"MDA-MB-231 cells [12]; 20 μM, 6 hours",no apoptosis was observed
same,apoptosis of confluent MDA-MB-231 cells,"MDA-MB-231 cells [12]; 20 μM, 24 hours",increases apoptosis
same,proliferation of confluent MDA-MB-231 cells,"MDA-MB-231 cells [12]; 20 μM, 24 hours",decreased the proliferation
same,apoptosis (ELISA),[13],induced apoptosis
same,"invasion reduced to, compared with control","MDA-MB-231 cells [14]; 10 μM, 6 hours",52%
same,"invasion reduced to, compared with control","MDA-MB-231 cells [14]; 20 μM, 6 hours",24%
same,activity at 10 µM,"MDA-MB-231 cells [14]; Homo sapiens, MDA-MB-231, 10 μM, 24 hours, read-out: invasion, % of controls",~24%
same,activity at 20 µM,"MDA-MB-231 cells [14]; Homo sapiens, MDA-MB-231, 20 μM, 24 hours, read-out: invasion, % of controls",5%
O=C1C(=Cc2ccc(Cl)cc2)C=C(c2ccccc2)N1c1ccc(O)cc1 [Compound A18],IL-6-stimulated phosphorylation / activation of STAT3,STAT3 [1],did not inhibit
same,IL-6 stimulated expression of survivin,STAT3 [1],inhibited
same,wounds healed,MDA-MB-231 cells [2]; 5 μM,76%
same,wounds healed,MDA-MB-231 cells [2]; 10 μM,39%
same,cell invasion inhibited,"A549 cells [3]; 5 μM, 6 hours",66%
same,"invasion reduced to, compared with control","A549 cells [3]; 10 μM, 6 hours",35%
same,wounds healed,A549 cells [5]; 5 μM,64%
same,wounds healed,A549 cells [5]; 10 μM,47%
same,STAT3 binding to the promoter of cyclin D1 gene (ChIP),STAT3 [15],eliminated
same,"expression of STAT3 downstream target genes at protein level (cyclin D1, survivin, VEGF, MMP-2, MMP-9, twist)",[6]; [16],decreased
same,proliferation and apoptosis of confluent A549,"A549 cells [7]; 5 and 10 μM, 6 or 24 hours",no significant effect
same,apoptosis of confluent MDA-MB-231 cells,"MDA-MB-231 cells [12]; 5 and 10 μM, 24 hours",did not induce any apoptosis
same,reduction of proliferation of confluent MDA-MB-231 cells,"MDA-MB-231 cells [12]; 5 and 10 μM, 24 hours",< 20%
same,apoptosis (ELISA),[13],remarkable induction of apoptosis
same,cell invasion inhibited,"MDA-MB-231 cells [14]; 5 μM, 6 hours",51%
same,"invasion reduced to, compared with control","MDA-MB-231 cells [14]; 10 μM, 6 hours",13%
CC(=O)Nc1ccc(N2C(=O)C(=Cc3ccc(Cl)cc3)C=C2c2ccccc2)cc1 [Compound A26],in-vitro therapeutic window,[9]; IC50 in non-cancerous cells divided by that in different cancer cells,small
same,plasma concentration,[11],very low
